Measured values from patent publication US12234230B2, “Substituted benzyl-triazole compounds for Cbl-b inhibition, and further uses thereof” (Nurix Therapeutics, Inc., priority 2019, dated 2025).
Like-named read-outs stand apart in the source and are kept apart here.

Experiments:
[1] = tested on: primary human total T-cells; experiment: Primary human total T-cell activation (IL-2 secretion, CD25 surface staining), Biological Example 2; conditions: fold change over baseline; for CD25 staining CD3/CD28 0.3 μM / IL-2 secretion CD3/CD28 0.3 μM: 0.3 μM inhibitor; for CD25 staining CD3/CD28 0.3 μM / IL-2 secretion CD3/CD28 0.3 μM / CD25 staining CD3/CD28 1 μM / IL-2 secretion CD3/CD28 1 μM: anti-CD3 and anti-CD28 co-stimulation; for CD25 staining CD3/CD28 1 μM / IL-2 secretion CD3/CD28 1 μM / CD25 staining CD3 1 μM / IL-2 secretion CD3 1 μM: 1 μM inhibitor; for CD25 staining CD3 1 μM / IL-2 secretion CD3 1 μM / CD25 staining CD3 3 μM / IL-2 secretion CD3 3 μM: anti-CD3 stimulation alone; for CD25 staining CD3 3 μM / IL-2 secretion CD3 3 μM: 3 μM inhibitor
Procedure: Peripheral blood mononuclear cells (PBMC) were obtained either: 1) by using Ficoll-Paque™ (GE Healthcare) for separation of peripheral blood hematopoietic cells from buffy coats of healthy human donors; or 2) directly from LeukoPak donations. […] The cells were rested overnight at 37° C. 5% CO2. The Cbl-inhibitor was added to 1×10^5 cells per well and the plate was incubated for one hour at 37° C. in 5% CO2 at the concentrations indicated (Table 3) with a final DMSO concentration of <0.1%. For samples stimulated with anti-CD3 antibody and anti-CD28 antibody (anti-CD3/anti-CD28), the Cbl-b inhibitor concentrations tested were 1 μM, and 0.3 μM. For samples stimulated with anti-CD3 antibody alone (anti-CD3), the Cbl-b inhibitor concentrations tested were 3 μM, and 1 μM. […] To prepare plates with plate bound anti-CD3 antibody (OKT3), 96-well round bottom tissue culture plates were coated with 100 μL of anti-CD3 antibody (OKT3) at 10 μg/mL for 4 hours at 37° C. 5% CO2 in phosphate buffered saline (PBS). […] Cells were stimulated for 48 hours prior to harvesting the cell free supernatant and staining the cell population for surface marker assessment by flow cytometry. Supernatants were analyzed for cytokine secretion, including IL-2 by ELISA (R&D Systems, Peprotech or Life Technologies) or Luminex multiplex kits (Procarta Life Technologies) following the manufacturer's protocol. Cells were stained with anti-CD25 antibody (BD Biosciences) to assess levels of surface marker of activation.
Readouts were reported as fold change over baseline. Baseline for this study was the measurement obtained from total human T-cells stimulated with anti-CD3 antibody and with soluble anti-CD28 antibody, wherein the cells were not incubated with a Cbl-b inhibitor (Table 3).

Cbl-b = Cbl-b (Homo sapiens (Human), UniProt Q13191); experiment: Cbl-b displacement assay (Cbl-b inhibition assay), Biological Example 1; format: binding
Procedure: The ability of candidate compounds to displace a known inhibitor and thereby inhibit Cbl-b activity was measured by monitoring the interaction of Cbl-b with a fluorophore-labeled probe in the presence of the candidate compound.
Following the one hour incubation, the plates were read for TR-FRET signal at 520/620 nm using an Envision plate reader (Perkin Elmer).

[2] = 0.125 nM Cbl-b final concentration (Low), read-out: Cbl-b activity IC50 (Low)
[3] = read-out: IC50 values in the Cbl-b inhibition assay of Biological Example 1
[4] = 0.5 nM Cbl-b final concentration (High), read-out: Cbl-b activity IC50 (High)

Cbl-b, sequence (Q13191 36-427): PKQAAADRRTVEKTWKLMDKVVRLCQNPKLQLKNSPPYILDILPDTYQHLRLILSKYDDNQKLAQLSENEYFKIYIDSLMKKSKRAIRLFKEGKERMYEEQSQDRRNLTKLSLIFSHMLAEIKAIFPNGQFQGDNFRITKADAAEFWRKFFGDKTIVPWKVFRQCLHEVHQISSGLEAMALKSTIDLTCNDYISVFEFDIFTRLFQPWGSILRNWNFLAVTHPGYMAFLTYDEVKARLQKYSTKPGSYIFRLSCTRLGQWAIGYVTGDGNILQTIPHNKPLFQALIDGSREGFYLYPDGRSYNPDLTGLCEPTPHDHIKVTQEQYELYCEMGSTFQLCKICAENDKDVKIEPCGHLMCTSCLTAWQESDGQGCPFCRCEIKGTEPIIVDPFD

IC50 (Cbl-b; [2]) | IC50 (Cbl-b; [3]) | IC50 (Cbl-b; [4]) | SMILES | CD25 staining CD3/CD28 0.3 μM [1] | IL-2 secretion CD3/CD28 0.3 μM [1] | CD25 staining CD3/CD28 1 μM [1] | IL-2 secretion CD3/CD28 1 μM [1] | CD25 staining CD3 1 μM [1] | IL-2 secretion CD3 1 μM [1] | CD25 staining CD3 3 μM [1] | IL-2 secretion CD3 3 μM [1]
< 5 nM | ≤ 5 nM |  | C[C@@H]1CN(Cc2cc3c(c(C(F)(F)F)c2)CN(c2cccc([C@H](c4nncn4C)C4CCC4)c2)C3=O)CCC1(F)F [Compound 1, 2-(3-((R)-cyclobutyl(4-methyl-4H-1,2,4-triazol-3-yl)methyl)phenyl)-6-(((R)-4,4-difluoro-3-methylpiperidin-1-yl)methyl)-4-(trifluoromethyl)isoindolin-1-one] | B (B indicates 1.24-1.39 fold) | B (B indicates 20-35 fold) | B (B indicates 1.24-1.39 fold) | B (B indicates 20-35 fold) | A (A indicates >2.5 fold) | A (A indicates >1.1 fold) | A (A indicates >2.5 fold) | A (A indicates >1.1 fold)
> 100 nM | > 100 nM |  | C[C@@H]1CN(Cc2cc3c(c(C(F)(F)F)c2)CN(c2cccc([C@@H](c4nncn4C)C4CCC4)c2)C3=O)CCC1(F)F [Compound 2, 2-(3-((S)-cyclobutyl(4-methyl-4H-1,2,4-triazol-3-yl)methyl)phenyl)-6-(((R)-4,4-difluoro-3-methylpiperidin-1-yl)methyl)-4-(trifluoromethyl)isoindolin-1-one] |  | A (A indicates >35 fold) |  | A (A indicates >35 fold) | A (A indicates >2.5 fold) | A (A indicates >1.1 fold) | A (A indicates >2.5 fold) | B (B indicates 0.70-1.1 fold)
< 5 nM | ≤ 5 nM |  | C[C@H]1CCCN(Cc2cc3c(c(C(F)(F)F)c2)CN(c2cccc([C@@H](c4nncn4C)C4CCC4)c2)C3=O)C1 [Compound 4, 2-(3-((S)-cyclobutyl(4-methyl-4H-1,2,4-triazol-3-yl)methyl)phenyl)-6-(((S)-3-methylpiperidin-1-yl)methyl)-4-(trifluoromethyl)isoindolin-1-one] |  |  |  |  |  |  |  | 
20 to 100 nM | 20 to 100 nM |  | C[C@@H]1CN(Cc2cc3c(c(C4CC4)n2)CN(c2cccc([C@@H](c4nncn4C)C4CCC4)c2)C3=O)CCC1(F)F [Compound 5, 2-(3-((S)-cyclobutyl(4-methyl-4H-1,2,4-triazol-3-yl)methyl)phenyl)-4-cyclopropyl-6-(((R)-4,4-difluoro-3-methylpiperidin-1-yl)methyl)-2,3-dihydro-1H-pyrrolo[3,4-c]pyridin-1-one] | B (B indicates 1.24-1.39 fold) | C (C indicates <20 fold) | B (B indicates 1.24-1.39 fold) | C (C indicates <20 fold) | C (C indicates <1.5 fold) | C (C indicates <0.70 fold) | C (C indicates <1.5 fold) | C (C indicates <0.70 fold)
20 to 100 nM | 20 to 100 nM |  | C[C@H]1CCCN(Cc2cc3c(c(C4CC4)n2)CN(c2cccc([C@@H](c4nncn4C)C4CCC4)c2)C3=O)C1 [Compound 6, 2-(3-((S)-cyclobutyl(4-methyl-4H-1,2,4-triazol-3-yl)methyl)phenyl)-4-cyclopropyl-6-(((S)-3-methylpiperidin-1-yl)methyl)-2,3-dihydro-1H-pyrrolo[3,4-c]pyridin-1-one] |  |  |  |  |  |  |  | 
> 100 nM | > 100 nM |  | Cn1cnnc1C(c1cccc(N2Cc3c(cccc3C(F)(F)F)C2=O)c1)C1COC1 (stereo not shown) [Compound 7, 2-(3-((4-methyl-4H-1,2,4-triazol-3-yl)(oxetan-3-yl)methyl)phenyl)-4-(trifluoromethyl)isoindolin-1-one] |  |  |  |  |  |  |  | 
 | 5 to 20 nM | 5 to 20 nM | Cn1cnnc1[C@@H](c1cccc(N2Cc3c(cccc3C(F)(F)F)C2=O)c1)C1CCC1 [Compound 8, (R)-2-(3-(cyclobutyl(4-methyl-4H-1,2,4-triazol-3-yl)methyl)phenyl)-4-(trifluoromethyl)isoindolin-1-one] |  |  |  |  |  |  |  | 
 |  | > 100 nM | Cn1cnnc1[C@H](c1cccc(N2Cc3c(cccc3C(F)(F)F)C2=O)c1)C1CCC1 [Compound 9, (S)-2-(3-(cyclobutyl(4-methyl-4H-1,2,4-triazol-3-yl)methyl)phenyl)-4-(trifluoromethyl)isoindolin-1-one] |  |  |  |  |  |  |  | 
> 100 nM |  |  | Cn1cnnc1C1(c2cccc(N3Cc4c(cccc4C(F)(F)F)C3=O)c2)CCOC1 (stereo not shown) [Compound 10, 2-(3-(3-(4-methyl-4H-1,2,4-triazol-3-yl)tetrahydrofuran-3-yl)phenyl)-4-(trifluoromethyl)isoindolin-1-one] |  |  |  |  |  |  |  | 
 |  | > 100 nM | Cn1cnnc1C1(c2cccc(N3Cc4c(cccc4C(F)(F)F)C3=O)c2)CCCC1 [Compound 11, 2-(3-(1-(4-methyl-4H-1,2,4-triazol-3-yl)cyclopentyl)phenyl)-4-(trifluoromethyl)isoindolin-1-one] |  | C (C indicates <20 fold) |  | C (C indicates <20 fold) | C (C indicates <1.5 fold) |  | C (C indicates <1.5 fold) | 
 |  | > 100 nM | Cc1cc(C(=O)Nc2cccc([C@@H](c3nncn3C)C3CCC3)c2)nc(C2CC2)n1 [Compound 12, (S)—N-(3-(cyclobutyl(4-methyl-4H-1,2,4-triazol-3-yl)methyl)phenyl)-2-cyclopropyl-6-methylpyrimidine-4-carboxamide] |  | C (C indicates <20 fold) |  | C (C indicates <20 fold) | C (C indicates <1.5 fold) |  | C (C indicates <1.5 fold) | 
 |  | > 100 nM | Cc1cc(C(=O)Nc2cccc([C@H](c3nncn3C)C3CCC3)c2)nc(C2CC2)n1 [Compound 13, (R)—N-(3-(cyclobutyl(4-methyl-4H-1,2,4-triazol-3-yl)methyl)phenyl)-2-cyclopropyl-6-methylpyrimidine-4-carboxamide] |  | C (C indicates <20 fold) |  | C (C indicates <20 fold) | C (C indicates <1.5 fold) |  | C (C indicates <1.5 fold) | 
20 to 100 nM | 20 to 100 nM |  | CC(c1cc2c(c(C(F)(F)F)c1)CN(c1cccc([C@@H](c3nncn3C)C3CCC3)c1)C2=O)N1CCC(F)(F)[C@H](C)C1 (stereo partly drawn) [Compound 14, 2-(3-((S)-cyclobutyl(4-methyl-4H-1,2,4-triazol-3-yl)methyl)phenyl)-6-(1-((R)-4,4-difluoro-3-methylpiperidin-1-yl)ethyl)-4-(trifluoromethyl)isoindolin-1-one] | B (B indicates 1.24-1.39 fold) | C (C indicates <20 fold) |  | C (C indicates <20 fold) | C (C indicates <1.5 fold) | C (C indicates <0.70 fold) | C (C indicates <1.5 fold) | C (C indicates <0.70 fold)
5 to 20 nM | 5 to 20 nM |  | C[C@@H]1CN(Cc2cc3c(c(C(F)(F)F)c2)CN(c2cccc([C@@H](c4nncn4C)C4CCC4)c2)C3=O)CCO1 [Compound 15, 2-(3-((S)-cyclobutyl(4-methyl-4H-1,2,4-triazol-3-yl)methyl)phenyl)-6-(((R)-2-methylmorpholino)methyl)-4-(trifluoromethyl)isoindolin-1-one] | B (B indicates 1.24-1.39 fold) | C (C indicates <20 fold) | B (B indicates 1.24-1.39 fold) | C (C indicates <20 fold) | C (C indicates <1.5 fold) | C (C indicates <0.70 fold) | C (C indicates <1.5 fold) | C (C indicates <0.70 fold)
20 to 100 nM | 20 to 100 nM |  | CC(c1cc2c(c(C(F)(F)F)c1)CN(c1cccc([C@@H](c3nncn3C)C3CCC3)c1)C2=O)N1CCC[C@H](C)C1 (stereo partly drawn) [Compound 16, 2-(3-((S)-cyclobutyl(4-methyl-4H-1,2,4-triazol-3-yl)methyl)phenyl)-6-(1-((S)-3-methylpiperidin-1-yl)ethyl)-4-(trifluoromethyl)isoindolin-1-one] |  | C (C indicates <20 fold) |  | B (B indicates 20-35 fold) | A (A indicates >2.5 fold) | B (B indicates 0.70-1.1 fold) | A (A indicates >2.5 fold) | B (B indicates 0.70-1.1 fold)
5 to 20 nM |  |  | CC[C@@H]1CN(Cc2cc3c(c(C(F)(F)F)c2)CN(c2cccc([C@]4(c5nncn5C)C[C@@H](C)C4)c2)C3=O)CCO1 [Compound 28, 6-(((R)-2-ethylmorpholino)methyl)-2-(3-((1s,3S)-3-methyl-1-(4-methyl-4H-1,2,4-triazol-3-yl)cyclobutyl)phenyl)-4-(trifluoromethyl)isoindolin-1-one] |  |  |  |  |  |  |  | 
5 to 20 nM |  |  | Cn1cnnc1[C@]1(c2cccc(N3Cc4c(cc(CN5CCO[C@H](CC#N)C5)cc4C(F)(F)F)C3=O)c2)C[C@H](C)C1 [Compound 30, 2-((R)-4-((2-(3-((1s,3S)-3-methyl-1-(4-methyl-4H-1,2,4-triazol-3-yl)cyclobutyl)phenyl)-3-oxo-7-(trifluoromethyl)isoindolin-5-yl)methyl)morpholin-2-yl)acetonitrile] |  |  |  |  |  |  |  | 
